Reference: patent publication US6358885B1, “Substituted phenylheterocyclic herbicides” (Mississippi State University, priority 1992, dated 2002)

Experiments:
[1] = test system: bedstraw; test: Test B preemergence/postemergence greenhouse plant response rating 0 to 10; type: in vivo, Galium aparine; conditions: for Plant response rating, Bedstraw: 0 to 10 scale
Procedure, shortened: (§1)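 Test chemicals were sprayed onto freshly planted seed and, concurrently, onto young plants between the one and four leaf stage. After a twelve- to sixteen-day greenhouse period, each species was visually compared with untreated controls.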

[2] = test system: cheatgrass; test: as above; type: in vivo, Bromus secalinus; conditions: for Plant response rating, Cheatgrass: 0 to 10 scale
Procedure, shortened: as §1

[3] = test system: cocklebur; test: as above; type: in vivo, Xanthium pensylvanicum; conditions: for Plant response rating, Cocklebur: 0 to 10 scale
Procedure, shortened: as §1

[4] = test system: cotton; test: as above; type: in vivo, Gossypium hirsutum; conditions: for Plant response rating, Cotton: 0 to 10 scale
Procedure, shortened: as §1

[5] = test system: crabgrass; test: as above; type: in vivo, Digitaria spp.; conditions: for Plant response rating, Crabgrass: 0 to 10 scale
Procedure, shortened: as §1

[6] = test system: giant foxtail; test: as above; type: in vivo, Setaria faberii; conditions: for Plant response rating, Giant foxtail: 0 to 10 scale
Procedure, shortened: as §1

[7] = test system: morningglory; test: as above; type: in vivo, Ipomoea hederacea; conditions: for Plant response rating, Morningglory: 0 to 10 scale
Procedure, shortened: as §1

[8] = test system: rape; test: as above; type: in vivo, Brassica napus; conditions: for Plant response rating, Rape: 0 to 10 scale
Procedure, shortened: as §1

[9] = test system: barley; test: Test C preemergence/postemergence greenhouse plant response rating 0 to 100; type: in vivo, Hordeum vulgare; conditions: for Plant response rating Barley Igri: 0 to 100 scale
Procedure, shortened: (§2)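 Compounds in non-phytotoxic solvent applied preemergence to sandy loam one day after planting, postemergence at the 1–4 leaf stage, or to ~2.5 cm floodwater over silt loam.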

[10] = test system: chickweed; test: as above; type: in vivo, Stellaria media; conditions: for Plant response rating, Chickweed: 0 to 100 scale
Procedure, shortened: as §2

[11] = test system: cotton; test: as above; type: in vivo, Gossypium hirsutum; conditions: for Plant response rating, Cotton: 0 to 100 scale
Procedure, shortened: as §2

[12] = test system: giant foxtail; test: as above; type: in vivo, Setaria faberii; conditions: for Plant response rating, Giant foxtail: 0 to 100 scale
Procedure, shortened: as §2

[13] = test system: lambsquarters; test: as above; type: in vivo, Chenopodium album; conditions: for Plant response rating Lambsquarters: 0 to 100 scale
Procedure, shortened: as §2

[14] = test system: pigweed; test: as above; type: in vivo, Amaranthusretroflexus; conditions: for Plant response rating Pigweed: 0 to 100 scale
Procedure, shortened: as §2

[15] = test system: soybean; test: as above; type: in vivo, Glycine max; conditions: for Plant response rating, Soybean: 0 to 100 scale
Procedure, shortened: as §2

[16] = test system: velvetleaf; test: as above; type: in vivo, Abutilon theophrasti; conditions: for Plant response rating, Velvetleaf: 0 to 100 scale
Procedure, shortened: as §2

[17] = test system: umbrella sedge; test: Test C flood test plant response rating 0 to 100; type: in vivo, Cyperus difformis; conditions: for Plant response rating Umbrella sedge: flood test species listed under POSTEMERGENCE, 0 to 100 scale
Procedure, shortened: as §2

[18] = test system: duck salad; test: Test C flood test plant response rating 0 to 100; type: in vivo, Heteranthera limosa; conditions: for Plant response rating Duck salad: flood test species listed under POSTEMERGENCE, 0 to 100 scale
Procedure, shortened: as §2

[19] = POSTEMERGENCE section, flood test, Rate 4 g/ha
[20] = Rate 16 g/ha, under POSTEMERGENCE head (flood test species)

C#CC(C)Oc1cc(-c2nn3c(c2Br)CCCC3)c(F)cc1Cl (centres unmarked) [Compound 66]
Plant response rating, Bedstraw ([1]; POSTEMERGENCE, Rate 50 g/ha): 10
Plant response rating, Bedstraw ([1]; PREEMERGENCE, Rate 50 g/ha): 9
Plant response rating (0 to 10 scale), Bedstraw ([1]; PREEMERGENCE, Rate 200 g/ha): 10
Plant response rating, Bedstraw ([1]; Rate 200 g/ha, POSTEMERGENCE): 10
Plant response rating, Cheatgrass ([2]; POSTEMERGENCE, Rate 50 g/ha): 3
Plant response rating, Cheatgrass ([2]; PREEMERGENCE, Rate 50 g/ha): 1
Plant response rating (0 to 10 scale), Cheatgrass ([2]; PREEMERGENCE, Rate 200 g/ha): 6
Plant response rating, Cheatgrass ([2]; Rate 200 g/ha, POSTEMERGENCE): 6
Plant response rating, Cocklebur ([3]; POSTEMERGENCE, Rate 50 g/ha): 9
Plant response rating, Cocklebur ([3]; PREEMERGENCE, Rate 50 g/ha): 0
Plant response rating (0 to 10 scale), Cocklebur ([3]; PREEMERGENCE, Rate 200 g/ha): 0
Plant response rating, Cocklebur ([3]; Rate 200 g/ha, POSTEMERGENCE): 10
Plant response rating, Cotton ([4]; POSTEMERGENCE, Rate 50 g/ha): 10
Plant response rating, Cotton ([4]; PREEMERGENCE, Rate 50 g/ha): 0
Plant response rating (0 to 10 scale), Cotton ([4]; PREEMERGENCE, Rate 200 g/ha): 0
Plant response rating, Cotton ([4]; Rate 200 g/ha, POSTEMERGENCE): 10
Plant response rating, Crabgrass ([5]; POSTEMERGENCE, Rate 50 g/ha): 4
Plant response rating, Crabgrass ([5]; PREEMERGENCE, Rate 50 g/ha): 0
Plant response rating (0 to 10 scale), Crabgrass ([5]; PREEMERGENCE, Rate 200 g/ha): 3
Plant response rating, Crabgrass ([5]; Rate 200 g/ha, POSTEMERGENCE): 5
Plant response rating, Giant foxtail ([6]; POSTEMERGENCE, Rate 50 g/ha): 7
Plant response rating, Giant foxtail ([6]; PREEMERGENCE, Rate 50 g/ha): 0
Plant response rating (0 to 10 scale), Giant foxtail ([6]; PREEMERGENCE, Rate 200 g/ha): 6
Plant response rating, Giant foxtail ([6]; Rate 200 g/ha, POSTEMERGENCE): 6
Plant response rating, Morningglory ([7]; POSTEMERGENCE, Rate 50 g/ha): 10
Plant response rating, Morningglory ([7]; PREEMERGENCE, Rate 50 g/ha): 0
Plant response rating (0 to 10 scale), Morningglory ([7]; PREEMERGENCE, Rate 200 g/ha): 2
Plant response rating, Morningglory ([7]; Rate 200 g/ha, POSTEMERGENCE): 10
Plant response rating, Rape ([8]; POSTEMERGENCE, Rate 50 g/ha): 10
Plant response rating, Rape ([8]; PREEMERGENCE, Rate 50 g/ha): 1
Plant response rating (0 to 10 scale), Rape ([8]; PREEMERGENCE, Rate 200 g/ha): 5
Plant response rating, Rape ([8]; Rate 200 g/ha, POSTEMERGENCE): 10
Plant response rating Barley Igri ([9]; POSTEMERGENCE, 62 g/ha): 50
Plant response rating Barley Igri ([9]; POSTEMERGENCE, 250 g/ha): 60
Plant response rating (0 to 100), Barley Igri ([9]; POSTEMERGENCE, Rate 4 g/ha): 30
Plant response rating Barley Igri ([9]; PREEMERGENCE, 62 g/ha): 0
Plant response rating Barley Igri ([9]; PREEMERGENCE, 250 g/ha): 20
Plant response rating (0 to 100), Barley Igri ([9]; PREEMERGENCE, Rate 4 g/ha): 0
Plant response rating (0 to 100), Barley Igri ([9]; Rate 16 g/ha, POSTEMERGENCE): 30
Plant response rating (0 to 100), Barley Igri ([9]; Rate 16 g/ha, PREEMERGENCE): 0
Plant response rating, Chickweed ([10]; POSTEMERGENCE, 62 g/ha): 95
Plant response rating, Chickweed ([10]; POSTEMERGENCE, 250 g/ha): 100
Plant response rating (0 to 100), Chickweed ([10]; POSTEMERGENCE, Rate 4 g/ha): 30
Plant response rating, Chickweed ([10]; PREEMERGENCE, 62 g/ha): 50
Plant response rating, Chickweed ([10]; PREEMERGENCE, 250 g/ha): 80
Plant response rating (0 to 100), Chickweed ([10]; PREEMERGENCE, Rate 4 g/ha): 0
Plant response rating (0 to 100), Chickweed ([10]; Rate 16 g/ha, POSTEMERGENCE): 70
Plant response rating (0 to 100), Chickweed ([10]; Rate 16 g/ha, PREEMERGENCE): 0
Plant response rating, Cotton ([11]; POSTEMERGENCE, 62 g/ha): 100
Plant response rating, Cotton ([11]; POSTEMERGENCE, 250 g/ha): 100
Plant response rating (0 to 100), Cotton ([11]; POSTEMERGENCE, Rate 4 g/ha): 70
Plant response rating, Cotton ([11]; PREEMERGENCE, 62 g/ha): 40
Plant response rating, Cotton ([11]; PREEMERGENCE, 250 g/ha): 90
Plant response rating (0 to 100), Cotton ([11]; PREEMERGENCE, Rate 4 g/ha): 0
Plant response rating (0 to 100), Cotton ([11]; Rate 16 g/ha, POSTEMERGENCE): 85
Plant response rating (0 to 100), Cotton ([11]; Rate 16 g/ha, PREEMERGENCE): 0
Plant response rating, Giant foxtail ([12]; POSTEMERGENCE, 62 g/ha): 70
Plant response rating, Giant foxtail ([12]; POSTEMERGENCE, 250 g/ha): 90
Plant response rating (0 to 100), Giant foxtail ([12]; POSTEMERGENCE, Rate 4 g/ha): 30
Plant response rating, Giant foxtail ([12]; PREEMERGENCE, 62 g/ha): 20
Plant response rating, Giant foxtail ([12]; PREEMERGENCE, 250 g/ha): 100
Plant response rating (0 to 100), Giant foxtail ([12]; PREEMERGENCE, Rate 4 g/ha): 0
Plant response rating (0 to 100), Giant foxtail ([12]; Rate 16 g/ha, POSTEMERGENCE): 50
Plant response rating (0 to 100), Giant foxtail ([12]; Rate 16 g/ha, PREEMERGENCE): 0
Plant response rating Lambsquarters ([13]; POSTEMERGENCE, 62 g/ha): 100
Plant response rating Lambsquarters ([13]; POSTEMERGENCE, 250 g/ha): 100
Plant response rating (0 to 100), Lambsquarters ([13]; POSTEMERGENCE, Rate 4 g/ha): 30
Plant response rating Lambsquarters ([13]; PREEMERGENCE, 62 g/ha): 100
Plant response rating Lambsquarters ([13]; PREEMERGENCE, 250 g/ha): 100
Plant response rating (0 to 100), Lambsquarters ([13]; PREEMERGENCE, Rate 4 g/ha): 0
Plant response rating (0 to 100), Lambsquarters ([13]; Rate 16 g/ha, POSTEMERGENCE): 80
Plant response rating (0 to 100), Lambsquarters ([13]; Rate 16 g/ha, PREEMERGENCE): 70
Plant response rating Pigweed ([14]; POSTEMERGENCE, 62 g/ha): 100
Plant response rating Pigweed ([14]; POSTEMERGENCE, 250 g/ha): 100
Plant response rating (0 to 100), Pigweed ([14]; POSTEMERGENCE, Rate 4 g/ha): 30
Plant response rating Pigweed ([14]; PREEMERGENCE, 62 g/ha): 100
Plant response rating Pigweed ([14]; PREEMERGENCE, 250 g/ha): 100
Plant response rating (0 to 100), Pigweed ([14]; PREEMERGENCE, Rate 4 g/ha): 0
Plant response rating (0 to 100), Pigweed ([14]; Rate 16 g/ha, POSTEMERGENCE): 100
Plant response rating (0 to 100), Pigweed ([14]; Rate 16 g/ha, PREEMERGENCE): 90
Plant response rating, Soybean ([15]; POSTEMERGENCE, 62 g/ha): 60
Plant response rating, Soybean ([15]; POSTEMERGENCE, 250 g/ha): 70
Plant response rating (0 to 100), Soybean ([15]; POSTEMERGENCE, Rate 4 g/ha): 20
Plant response rating, Soybean ([15]; PREEMERGENCE, 250 g/ha): 20
Plant response rating (0 to 100), Soybean ([15]; PREEMERGENCE, Rate 4 g/ha): 0
Plant response rating (0 to 100), Soybean ([15]; Rate 16 g/ha, POSTEMERGENCE): 50
Plant response rating (0 to 100), Soybean ([15]; Rate 16 g/ha, PREEMERGENCE): 0
Plant response rating, Velvetleaf ([16]; POSTEMERGENCE, 62 g/ha): 75
Plant response rating, Velvetleaf ([16]; POSTEMERGENCE, 250 g/ha): 100
Plant response rating (0 to 100), Velvetleaf ([16]; POSTEMERGENCE, Rate 4 g/ha): 60
Plant response rating, Velvetleaf ([16]; PREEMERGENCE, 250 g/ha): 100
Plant response rating (0 to 100), Velvetleaf ([16]; Rate 16 g/ha, POSTEMERGENCE): 65
Plant response rating (0 to 100), Velvetleaf ([16]; Rate 16 g/ha, PREEMERGENCE): 70
Plant response rating (0 to 100), Umbrella sedge [17, 19]: 0
Plant response rating (0 to 100), Umbrella sedge [17, 20]: 0
Plant response rating Umbrella sedge ([17]; 62 g/ha): 0
Plant response rating Umbrella sedge ([17]; 250 g/ha): 80
Plant response rating (0 to 100), Duck salad [18, 19]: 0
Plant response rating (0 to 100), Duck salad [18, 20]: 30
Plant response rating Duck salad ([18]; 62 g/ha): 75
Plant response rating Duck salad ([18]; 250 g/ha): 90
